What was measured:
[1] = system: traumatic brain injured animals; assay: Urinary MBG excretion in sham and traumatic brain injured animals; assay type: in vivo
Text: There are estimated to be between 300,000 to 350,000 veterans of the Middle East conflicts who currently suffer from PTSD related to wartime service. However, there are no proven methods to diagnose and stage the results of both physical and psychological trauma leading to PTSD, nor are there successful preventative or treatment methods. The interest in these military-associated problems has been accelerated by their potential application also to concussion in civilian life, especially to amateur, collegiate, and professional sports. Thus far, no solution has been enunciated nor has been proven (Meier and Ivory, Jul. 3, 2015, The New York Times). […] 114. […] It has been determined that a circulating cardiac glycoside (or “cardiotonic steroid”) called marinobufagenin (MBG) (FIG. 1), acts as both an indicator and initiator of the inflammatory process involved in TBI (FIG. 1) (Shapiro et al., The American Society for Clinical Pharmacology and Therapeutics, Dallas, Tex., Mar. 2-5, 2011. ASCPT Annual Meeting Program Booklet, p. 78; Puschett et al., Medical Research Archives 2015, ISSN 2375-1924; Oliver et al., J Experimental Neuroscience 2015, 9:67-72). […]

[2] = system: GFAP-labeled astrocytes in cortex after impact acceleration injury; assay: GFAP immuno-fluorescence of brain after impact acceleration injury (IAI); assay type: in vivo; conditions: RBG at 1 hour after IAI
Procedure: FIGS. 2A-2C. Micrographs of GFAP (glial fibrillary acidic protein) immuno-fluorescence. GFAP antibody labels the intermediate filaments of most astrocytes in the brain. In the sham animals (FIG. 2A), a normal distribution of GFAP-labeled astrocytes is seen. At 24 hours after an impact acceleration injury (IAI; FIG. 2B), a noticeable scar is observed (arrows) in layers 2 and 3 of the cortex. There is also a patchy loss of GFAP-labeled astrocytes throughout cortex and the vasculature (arrowheads) appears damaged. The loss of GFAP immunoreactivity and the appearance of astrocyte hypertrophy are indicative of a neuroinflammatory response to injury. […] The RBG treatment also reduces the decrease in GFAP immunoreactivity and a greater proportion of GFAP-labeled astrocytes have a normal, rather than hypertrophied appearance.

[3] = system: rodent brain contusion model; assay: Rodent brain contusion model; assay type: in vivo; conditions: given 1 hour after the insult
Text: MBG is elevated in other syndromes such as preeclampsia and traumatic brain injury. It has been shown that the administration of the antagonist of MBG, resibufagenin (RBG), is therapeutically effective. […] RBG antagonizes MBG activity and may be an effective treatment for hypertension, ARDS, traumatic brain injury, and preeclampsia. Certain embodiments are directed to treating a patient having elevated levels of MBG by administering an MBG antagonist or anti-MBG agent. In certain aspects the anti-MBG agent is resibufagenin (RBG).

[4] = system: preeclampsia in animal models; conditions: cited from earlier work
[5] = in vitro; cited from earlier work
[6] = system: blood/brain barrier; conditions: including disruption of the blood/brain barrier; cited from earlier work

SMILES	Urinary MBG excretion ([1]; TBI + RBG group, N = 10, sham 592.8 ± 79.3, TBI 1340.9 ± 308.5, P TBI vs. TBI + RBG = 0.02)	Antagonism of the effects of MBG ([1]; animal model of TBI (FIG. 2, Table 1))	Glial scar ([2]; IAI+RBG animals)	Alterations after IAI (glial scar, loss of GFAP immunoreactivity, astrocyte hypertrophy) ([2]; micrographs at 24 hours after IAI)	Tissue injury [3]	Preeclampsia [4]	Vasoconstrictor action [5]	Vascular leak [6]
C[C@]12CC[C@H](O)C[C@H]1CC[C@@H]1[C@@H]2CC[C@]2(C)[C@@H](c3ccc(=O)oc3)C[C@H]3O[C@]132 [RBG, resibufogenin]	475.3 ± 56.1	antagonizes the effects of MBG	A glial scar was not observed	most of these alterations are ameliorated	amelioration of tissue injury	prevents preeclampsia		
C[C@]12CC[C@H](O)C[C@@]1(O)CC[C@@H]1[C@@H]2CC[C@]2(C)[C@@H](c3ccc(=O)oc3)C[C@H]3O[C@]132 [MBG, marinobufagenin]							acts in vitro as a vasoconstrictor	cause vascular leak
